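Grown in 96-well plates, cells were treated for 48 hours with each compound at five concentrations. Insufficient inhibition: endpoint recorded as highest concentration tested. GI50 = concentration required for 50% inhibition of growth. TGI: total growth inhibition.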
How the values were obtained:
Assay in all cases: growth of human tumour cells (NCI), 48 h
[1] = tested on: 786-0 renal
[2] = tested on: A498 renal
[3] = tested on: A549 NSCLC
[4] = tested on: ACHN renal
[5] = tested on: BT-549 breast
[6] = tested on: CAKI-1 renal
[7] = tested on: CCRF-CEM leukemia
[8] = tested on: COLO 205 colon
[9] = tested on: DU-145 prostate
[10] = tested on: EKVX NSCLC
[11] = tested on: HCC-2998 colon
[12] = tested on: HCT-116 colon
[13] = tested on: HCT-15 colon
[14] = tested on: HL-60(TB) leukemia
[15] = tested on: HOP-62 NSCLC
[16] = tested on: HOP-92 NSCLC
[17] = tested on: HS 578T breast
[18] = tested on: HT29 colon
[19] = tested on: IGROV1 ovarian
[20] = tested on: K-562 leukemia
[21] = tested on: KM12 colon
[22] = tested on: LOX IMVI melanoma
[23] = tested on: M14 melanoma
[24] = tested on: MALME-3M melanoma
[25] = tested on: MCF7 breast
[26] = tested on: MDA-MB-231 breast
[27] = tested on: MDA-MB-435
[28] = tested on: MDA-MB-468 breast
[29] = tested on: MOLT-4 leukemia
[30] = tested on: NCI-H226 lung
[31] = tested on: NCI-H23 lung
[32] = tested on: NCI-H460 lung
[33] = tested on: NCI-H522 lung
[34] = tested on: OVCAR-3 ovarian
[35] = tested on: OVCAR-4 ovarian
[36] = tested on: OVCAR-5 ovarian
[37] = tested on: OVCAR-8 ovarian
[38] = tested on: PC-3 prostate
[39] = tested on: RPMI-8226 leukemia
[40] = tested on: RXF 393 renal
[41] = tested on: SF-268 CNS
[42] = tested on: SF-295 CNS
[43] = tested on: SF-539 CNS
[44] = tested on: SK-MEL-2 melanoma
[45] = tested on: SK-MEL-28 melanoma
[46] = tested on: SK-MEL-5 melanoma
[47] = tested on: SK-OV-3 ovarian
[48] = tested on: SN12C renal
[49] = tested on: SNB-19 CNS
[50] = tested on: SR leukemia
[51] = tested on: SW-620 colon
[52] = tested on: T-47D breast
[53] = tested on: TK-10 renal
[54] = tested on: U251 CNS
[55] = tested on: UACC-257 melanoma
[56] = tested on: UACC-62 melanoma
[57] = tested on: UO-31 renal

`COc1ccc(-c2cc(-c3cc(OC)c(OC)c(OC)c3)[nH]c(=O)c2C#N)cc1` gave a GI50 [1] of 4.88 µM, a TGI [1] of 20.1 µM and a GI50 [2] of 3.81 µM. The TGI [2] was 23.4 µM, the GI50 [3] was 14 µM and the TGI [3] was > 100 µM. The GI50 [4] was 9.76 µM, the TGI [4] was 32.2 µM and the GI50 [5] was 16.5 µM. For the same compound, the TGI [5] was 48 µM, the GI50 [6] was 6.96 µM and the TGI [6] was 31.4 µM. The GI50 [7] was > 100 µM, the TGI [7] was > 100 µM and the GI50 [8] was > 100 µM. The TGI [8] was > 100 µM, the GI50 [9] was 88.1 µM and the TGI [9] was > 100 µM. The GI50 [10] was 21.3 µM, the TGI [10] was > 100 µM and the GI50 [11] was > 100 µM. The TGI [11] was > 100 µM, the GI50 [12] was 55.9 µM and the TGI [12] was > 100 µM. For the same compound, the GI50 [13] was 96.3 µM, the TGI [13] was > 100 µM and the GI50 [14] was > 100 µM. The TGI [14] was > 100 µM, the GI50 [15] was 7.08 µM and the TGI [15] was 24.1 µM. It also gave a GI50 [16] of 1.97 µM, a TGI [16] of 8.17 µM and a GI50 [17] of 5.67 µM. For the same compound, the TGI [17] was 56.8 µM, the GI50 [18] was 71.6 µM and the TGI [18] was > 100 µM. For the same compound, the GI50 [19] was 15.1 µM, the TGI [19] was 76.3 µM and the GI50 [20] was > 100 µM. The TGI [20] was > 100 µM, the GI50 [21] was > 100 µM and the TGI [21] was > 100 µM. The GI50 [22] was 14 µM, the TGI [22] was 47.4 µM and the GI50 [23] was > 100 µM. For the same compound, the TGI [23] was > 100 µM, the GI50 [24] was 19.3 µM and the TGI [24] was 97.3 µM. For the same compound, the GI50 [25] was 23.8 µM, the TGI [25] was > 100 µM and the GI50 [26] was 3.76 µM. For the same compound, the TGI [26] was 18.4 µM, the GI50 [27] was > 100 µM and the TGI [27] was > 100 µM. The GI50 [28] was 17.8 µM, the TGI [28] was 47 µM and the GI50 [29] was > 100 µM. For the same compound, the TGI [29] was > 100 µM, the GI50 [30] was 5.6 µM and the TGI [30] was 24.9 µM. The GI50 [31] was 18.9 µM, the TGI [31] was 62.1 µM and the GI50 [32] was 12.9 µM. It also gave a TGI [32] of 44.3 µM, a GI50 [33] of 20.3 µM and a TGI [33] of 64.4 µM. The GI50 [34] was 62.7 µM, the TGI [34] was > 100 µM and the GI50 [35] was 4.24 µM. The TGI [35] was 29.8 µM, the GI50 [36] was > 100 µM and the TGI [36] was > 100 µM. The GI50 [37] was 4.3 µM, the TGI [37] was 22.4 µM and the GI50 [38] was 25.5 µM. For the same compound, the TGI [38] was > 100 µM, the GI50 [39] was > 100 µM and the TGI [39] was > 100 µM. It also gave a GI50 [40] of 2.35 µM, a TGI [40] of 12.1 µM and a GI50 [41] of 16.9 µM. It also gave a TGI [41] of 79.5 µM, a GI50 [42] of 12.3 µM and a TGI [42] of 32.3 µM. It also gave a GI50 [43] of 5.79 µM, a TGI [43] of 20.2 µM and a GI50 [44] of 14.6 µM. For the same compound, the TGI [44] was 30.8 µM, the GI50 [45] was 46 µM and the TGI [45] was > 100 µM. The GI50 [46] was 17.1 µM, the TGI [46] was 64.7 µM and the GI50 [47] was 7.52 µM. It also gave a TGI [47] of 26.7 µM, a GI50 [48] of 3.8 µM and a TGI [48] of 61.6 µM. The GI50 [49] was 6.4 µM, the TGI [49] was 35.8 µM and the GI50 [50] was > 100 µM. The TGI [50] was > 100 µM, the GI50 [51] was 71.8 µM and the TGI [51] was > 100 µM. For the same compound, the GI50 [52] was 7.72 µM, the TGI [52] was > 100 µM and the GI50 [53] was 19.8 µM. The TGI [53] was > 100 µM, the GI50 [54] was 4.48 µM and the TGI [54] was 22.4 µM. The GI50 [55] was 76.6 µM, the TGI [55] was > 100 µM and the GI50 [56] was 27.2 µM. For the same compound, the TGI [56] was > 100 µM, the GI50 [57] was 3.54 µM and the TGI [57] was 25.2 µM.

Source: PubChem BioAssay (NCI)
